From paper PMC5866846 (Archives of Toxicology, 2017)
pIC50: −log10 of the molar value. Like-named read-outs stand apart in the source and are kept apart here. Blank lines part the entries; values can stand above or below the compound they belong to.

Columns and labels:
[1] = system: CYP1A2, 2C19, 2C9, 2B6, 3A4 and 2C8; experiment: CYP activity in upcyte hepatocytes after treatment, all tested CYP isoenzymes together; assay type: cell-based, human
Procedure: (§1) Cells were cultivated in hepatocyte culture medium at 37 °C and 5 °% CO2 in a humidified incubator. Before starting experiments, cells were cultivated in hepatocyte culture medium containing 0.5% (v/v) DMSO (Preculture medium) for 5 days (density of 0.8 × 10^4 cells/cm^2) and were subcultivated in high-performance medium containing 0.1% (v/v) DMSO (Metabolism conditioning medium) for 3–5 days (density of 1.6 × 10^5 cells/cm^2, confluence). The medium was replaced every 2–3 days.
(§2) In HLM and supersome™ incubations the formation rate is given as nmol µg^−1 min^−1 and fmol pmol^−1 min^−1, respectively, and was calculated as the mean ± SD. […] The intrinsic Clearance (Clint) was given as Vmax/Km ratio. […] Activity of CYP enzymes in induction assays is given as the fold-change (mean ± SD) compared to the corresponding DMSO-treated control. […] Gene expression patterns of treated cells are given as fold-change compared to the corresponding DMSO-treated control samples, as described above. […] In induction and inhibition experiments corresponding EC50 and IC50 values were calculated by nonlinear regression. In all experiments a level of probability (p) ≤ 0.05 for statistical testing was considered significant.

CYP2C8 [2] = biological target: T1, CYP2C8 (Homo sapiens, UniProt P10632); experiment: Inhibition of CYP2C8 activity in HLM; assay type: in vitro ADME; settings: 200 nM to 10 µM, 10 min pre-incubation
T1 sequence (P10632 1-490): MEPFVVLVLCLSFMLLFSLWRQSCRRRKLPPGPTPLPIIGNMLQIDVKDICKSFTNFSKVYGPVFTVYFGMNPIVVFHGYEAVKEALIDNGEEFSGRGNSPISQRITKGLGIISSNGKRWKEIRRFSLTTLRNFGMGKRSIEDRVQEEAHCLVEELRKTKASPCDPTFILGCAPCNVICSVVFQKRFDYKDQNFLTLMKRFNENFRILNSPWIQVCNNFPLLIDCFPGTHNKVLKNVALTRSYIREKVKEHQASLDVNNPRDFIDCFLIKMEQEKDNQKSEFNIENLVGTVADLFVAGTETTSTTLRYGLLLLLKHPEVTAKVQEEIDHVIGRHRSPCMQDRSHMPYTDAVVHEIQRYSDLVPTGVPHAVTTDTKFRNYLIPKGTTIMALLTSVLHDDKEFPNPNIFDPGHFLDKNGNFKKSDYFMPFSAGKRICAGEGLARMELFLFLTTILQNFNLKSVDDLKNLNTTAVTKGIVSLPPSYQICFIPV

CYP2C19 [3] = biological target: T2, CYP2C19 (Homo sapiens, UniProt P33261); experiment: CYP2C19 activity in upcyte hepatocytes after treatment (probe substrate cocktail); assay type: cell-based; set-up: host or cells: upcyte hepatocytes 653-03 and 653-03 #138 (653-03 2D6); settings: human, probe S-mephenytoin 100 µM, 5 µM
T2 sequence (P33261 whole entry): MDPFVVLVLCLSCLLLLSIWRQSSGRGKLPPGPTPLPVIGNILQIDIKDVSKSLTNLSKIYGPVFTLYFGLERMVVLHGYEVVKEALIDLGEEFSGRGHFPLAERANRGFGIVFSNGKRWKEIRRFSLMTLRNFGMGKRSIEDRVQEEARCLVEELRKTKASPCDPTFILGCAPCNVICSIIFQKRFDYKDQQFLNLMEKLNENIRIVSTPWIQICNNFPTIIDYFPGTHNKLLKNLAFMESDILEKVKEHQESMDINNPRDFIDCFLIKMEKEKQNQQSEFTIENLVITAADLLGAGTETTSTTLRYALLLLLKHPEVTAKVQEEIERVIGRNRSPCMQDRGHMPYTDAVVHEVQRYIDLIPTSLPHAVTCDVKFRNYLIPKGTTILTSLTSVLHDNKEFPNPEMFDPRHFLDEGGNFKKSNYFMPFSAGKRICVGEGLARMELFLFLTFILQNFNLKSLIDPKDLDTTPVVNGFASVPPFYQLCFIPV
Procedure: as §1, §2
(§3) As control 0.05 % DMSO was used. The basal CYP activity and induction of CYP activity compared to the DMSO control were measured via HPLC-ESI-MS/MS.

CYP2C8 [4] = biological target: T1, CYP2C8; experiment: CYP2C8 activity in upcyte hepatocytes after treatment (probe substrate cocktail); assay type: cell-based; set-up: host or cells: upcyte hepatocytes 653-03 and 653-03 #138 (653-03 2D6); settings: human, upcyte hepatocytes 653-03 and 653-03 2D6, probe amodiaquine 5 µM, 5 µM, both cell lines
Procedure: as §1, §2, §3

CYP2C9 [5] = biological target: T3, CYP2C9 (Homo sapiens, UniProt P11712); experiment: CYP2C9 activity in upcyte hepatocytes after treatment (probe substrate cocktail); assay type: cell-based; set-up: host or cells: upcyte hepatocytes 653-03 and 653-03 #138 (653-03 2D6); settings: human, probe tolbutamide 100 µM, 5 µM
T3 sequence (P11712 whole entry): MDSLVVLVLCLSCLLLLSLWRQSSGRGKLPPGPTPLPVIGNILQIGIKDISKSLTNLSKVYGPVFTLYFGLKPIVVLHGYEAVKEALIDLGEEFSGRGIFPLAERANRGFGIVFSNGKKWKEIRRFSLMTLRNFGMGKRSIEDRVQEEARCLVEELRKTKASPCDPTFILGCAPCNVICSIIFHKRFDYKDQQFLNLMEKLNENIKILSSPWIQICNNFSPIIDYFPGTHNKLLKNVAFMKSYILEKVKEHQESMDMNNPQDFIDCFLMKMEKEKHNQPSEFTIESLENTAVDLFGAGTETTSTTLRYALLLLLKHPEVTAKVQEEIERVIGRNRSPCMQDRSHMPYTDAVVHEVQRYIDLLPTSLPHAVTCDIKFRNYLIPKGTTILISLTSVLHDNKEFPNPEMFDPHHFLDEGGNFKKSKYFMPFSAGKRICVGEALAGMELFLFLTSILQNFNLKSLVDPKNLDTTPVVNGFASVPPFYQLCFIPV
Procedure: as §1, §2, §3

CYP2C9 [6] = biological target: T3, CYP2C9; experiment: Inhibition of CYP2C9 activity in HLM; assay type: in vitro ADME; settings: 200 nM to 10 µM, 10 min pre-incubation
CYP2C19 [7] = biological target: T2, CYP2C19; experiment: Inhibition of CYP2C19 activity in HLM; assay type: in vitro ADME; settings: 200 nM to 10 µM, 10 min pre-incubation
ABCB1 gene expression = ABCB1 gene expression in upcyte hepatocytes (Fluidigm RT-PCR); assay type: cell-based, human; settings: rifampicin 30 µM, 72 h
Text: Total RNA was isolated from cells using the Direct-zol™ RNA MiniPrep kit (Zymo Research Corp., Irvine, California). cDNA was synthesized using TaqMan Reverse Transcription Reagents (Life technologies, Applera GmbH, Darmstadt, Germany) and the expression of 25 genes representative of phase I and phase II drug metabolism and transport was quantified by Fluidigm’s BioMark HD high-throughput quantitative chip platform (Fluidigm Corporation, San Francisco, USA). For relative gene expression analysis, the delta-delta-Ct (ΔΔCt) method was used: the Ct values of the target mRNA were first normalized to those of the endogenous control glyceraldehyde-3-phosphate dehydrogenase (GAPDH) followed by dividing values of experimental samples by their corresponding DMSO-treated controls to calculate the x-fold changes of mRNA expression.
In HLM and supersome™ incubations the formation rate is given as nmol µg^−1 min^−1 and fmol pmol^−1 min^−1, respectively, and was calculated as the mean ± SD. […] The intrinsic Clearance (Clint) was given as Vmax/Km ratio. […] In induction and inhibition experiments corresponding EC50 and IC50 values were calculated by nonlinear regression. […]
as §3

GSTA2 gene expression = GSTA2 gene expression in upcyte hepatocytes (Fluidigm RT-PCR); assay type: cell-based, human; settings: rifampicin 30 µM, 72 h
Text: […]. […] […].
[…]. As control 0.05 % DMSO was used.

[8] = Formation kinetics of Tam-Bis, (Z)- and (E)-Met E in HLM with increasing substrate concentrations; assay type: in vitro ADME, human; settings: substrate 1 to 50 µM, Michaelis-Menten
Procedure: The reaction was started by adding a NADPH regenerating system (5 mM MgCl2, 5 mM glucose-6-phosphate, 0.5 mM NADP^+ and 10 U glucose-6-phosphate-dehydrogenase in 100 mM sodium phosphate buffer pH 7.4) to the samples and immediately put in a 37 °C water bath for 30 min. The reaction was stopped with the same volume of acetonitrile (ACN) containing 1% of acetic acid together with the corresponding deuterated internal standards. Regarding incubations with Supersomes™ containing UGTs, 5 µg of protein was incubated with 250 mM MgCl2 and 2.5 ng of alamethicin for 30 min on ice, followed by 10 min at 37 °C in a water bath. Subsequently, the Supersomes™ were incubated with 10 µM of substrates (Tam-Bis, (E)- and (Z)-Met E) and the glucuronidation was started by addition of 10 mM of uridine 5′-diphospho-glucuronic acid to the samples in a water bath at 37 °C for 30 min. The reaction was stopped as described above. Metabolites were analyzed by HPLC-ESI-MS/MS.
For the assessment of formation kinetics of Tam-Bis, (E)- and (Z)-Metabolite E, HLM were incubated with increasing substrate concentrations ranging from 1 to 50 µM as described above. As control for each concentration a sample without NADPH-regenerating system was prepared. […]

SMILES: CCC(=C(c1ccccc1)c1ccc(O)cc1)c1ccccc1 [Met E, 4-[1,2-diphenylbut-1-en-1-yl]phenol]
inhibitory effect on the tested CYP enzymes ([1]; 5 µM, 72 h): did not act as CYP inhibitors

pIC50 (CYP2C8 [2]): 5.62
inhibition at 72 h, 5 µM (CYP2C19 [3]): ≤ 70%
inhibition at 72 h, 5 µM (CYP2C8 [4]): 62.5%
inhibition at 72 h, 5 µM (CYP2C9 [5]): 93%
pIC50 (CYP2C9 [6]): 6.68
pIC50 (CYP2C19 [7]): 6.49
SMILES: CC/C(=C(\c1ccc(O)cc1)c1ccc(OCCN)cc1)c1ccccc1 [Norendox, N-didesmethyl-4-hydroxytamoxifen]

SMILES: CO[C@H]1/C=C/O[C@@]2(C)Oc3c(C)c(O)c4c(O)c(c(/C=N/N5CCN(C)CC5)c(O)c4c3C2=O)NC(=O)/C(C)=C\C=C\[C@H](C)[C@H](O)[C@@H](C)[C@@H](O)[C@@H](C)[C@H](OC(C)=O)[C@@H]1C [Rifa, rifampicin]
ABCB1 gene expression, induction (ABCB1 gene expression): 1.7 fold
GSTA2 gene expression, induction (GSTA2 gene expression): 2.6 fold

Km ([8]; read-out: Km, (E)-Met E formation): 11.5 µM
Km ([8]; read-out: Km, (Z)-Met E formation): 82.3 µM
SMILES: CC/C(=C(\c1ccccc1)c1ccc(OCCN(C)C)cc1)c1ccccc1 [Tam, Tamoxifen, reference compound]
V max, (E)-Met E formation [8]: 0.57 pmol/mg/min
V max, (Z)-Met E formation [8]: 9.2 pmol/mg/min

impact on CYP activities ([1]; 500 nM, 3 days): did not have an impact
SMILES: C[C@]12CC[C@@H]3c4ccc(O)cc4CC[C@H]3[C@@H]1CC[C@@H]2O [estradiol, reference compound]
